Test results reported in article PMC2748668 (Pharmacological research : the official journal of the …, 2009).
Read-outs that look alike come from different tables or passages of the source.

What was measured:
[1] = target: T1, human OATP1B1 (Homo sapiens, UniProt Q9Y6L6); test: cell-based
T1 sequence (Q9Y6L6 1-691): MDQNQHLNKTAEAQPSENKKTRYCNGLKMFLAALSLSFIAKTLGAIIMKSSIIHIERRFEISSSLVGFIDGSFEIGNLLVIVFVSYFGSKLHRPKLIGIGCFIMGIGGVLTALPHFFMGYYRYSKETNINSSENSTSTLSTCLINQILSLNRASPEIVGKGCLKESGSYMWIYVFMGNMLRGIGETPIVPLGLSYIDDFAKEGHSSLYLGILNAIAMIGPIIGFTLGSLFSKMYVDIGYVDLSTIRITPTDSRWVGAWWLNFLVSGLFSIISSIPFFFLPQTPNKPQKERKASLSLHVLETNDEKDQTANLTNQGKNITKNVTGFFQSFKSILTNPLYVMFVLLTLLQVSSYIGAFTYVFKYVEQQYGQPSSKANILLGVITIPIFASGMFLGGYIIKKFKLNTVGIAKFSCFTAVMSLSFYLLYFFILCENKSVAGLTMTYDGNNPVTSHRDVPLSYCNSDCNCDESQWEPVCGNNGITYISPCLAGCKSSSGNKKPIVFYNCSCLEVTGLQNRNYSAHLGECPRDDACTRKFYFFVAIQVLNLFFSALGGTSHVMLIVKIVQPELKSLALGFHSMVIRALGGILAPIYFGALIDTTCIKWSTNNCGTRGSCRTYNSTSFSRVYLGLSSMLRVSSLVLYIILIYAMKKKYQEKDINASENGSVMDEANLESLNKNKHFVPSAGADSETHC

[2] = target: T1, human OATP1B1; test: Inhibition kinetic studies
[3] = target: T1, human OATP1B1
[4] = test system: OATP1B1; conditions: estrone-3-sulfate as substrate of OATP1B1; cited from earlier work
[5] = test system: Oatp1a5; conditions: estrone-3-sulfate as substrate of Oatp1a5; cited from earlier work

| SMILES | Ki [1] [µM] | further results |
| --- | --- | --- |
| C[C@@]12CCC[C@H]1[C@@H]1CC[C@H]3CCCC[C@]3(C)[C@H]1CC2 | 374 ± 123 | – |
| C[C@]12CC[C@@H]3c4ccc(O)cc4CC[C@H]3[C@@H]1CC[C@@H]2O[C@@H]1O[C@H](C(=O)O)[C@@H](O)[C@H](O)[C@H]1O | – | Km ([2]; Km of the model substrate given in the Ki column (footnote *), mean ± SD): 5.9 ± 1.2 µM |
| CC(C)(Oc1ccc(CCNC(=O)c2ccc(Cl)cc2)cc1)C(=O)O [Bezafibrate] | 45.2 ± 5.9 | – |
| C[C@H](CCC(=O)O)[C@H]1CC[C@H]2[C@@H]3[C@H](O)C[C@@H]4C[C@H](O)CC[C@]4(C)[C@H]3CC[C@]12C [Chenodeoxycholic acid] | 3.4 ± 0.5 | – |
| C[C@H](CCC(=O)O)[C@H]1CC[C@H]2[C@@H]3[C@H](O)C[C@@H]4C[C@H](O)CC[C@]4(C)[C@H]3C[C@H](O)[C@]12C [Cholic acid] | 25 ± 3.3 | – |
| Clc1ccccc1C(c1ccccc1)(c1ccccc1)n1ccnc1 [Clotrimazole] | 7.6 ± 1.9 | – |
| C[C@]12CC[C@@H]3c4ccc(OS(=O)(=O)O)cc4CC[C@H]3[C@@H]1CCC2=O [Estrone-3-sulfate] | – | Ki [3]: 0.2 ± 0.02 µM; Km [4]: 2.4 µM; Km [5]: 268 µM |
| CN(CCOc1ccc(C[C@H](Nc2ccccc2C(=O)c2ccccc2)C(=O)O)cc1)c1ccccn1 [GW1929] | – | Ki [3]: 0.3 ± 0.05 µM |
| CC(C)c1onc(-c2c(Cl)cccc2Cl)c1COc1ccc(/C=C/c2cccc(C(=O)O)c2)c(Cl)c1 [GW4064] | – | Ki [3]: 32.4 ± 6.7 µM |
| C[C@H](CCC(=O)NCCS(=O)(=O)O)[C@H]1CC[C@H]2[C@@H]3[C@H](O)C[C@@H]4C[C@H](O)CC[C@]4(C)[C@H]3C[C@H](O)[C@]12C [Taurocholic acid] | – | Ki [2]: 11.4 ± 3.2 µM |
| NC(Cc1cc(I)c(Oc2cc(I)c(O)c(I)c2)c(I)c1)C(=O)O (centres unmarked) [Thyroxine] | 3.5 ± 0.7 | – |

More lines, main results first:

| Ki [1] [µM] | SMILES | further results |
| --- | --- | --- |
| 29.7 ± 5.7 | C[C@H](CCC(=O)O)[C@H]1CC[C@H]2[C@@H]3C(=O)C[C@@H]4CC(=O)CC[C@]4(C)[C@H]3CC(=O)[C@]12C [Dehydrocholic acid] | – |
| 3.2 ± 0.5 | C[C@H](CCC(=O)O)[C@H]1CC[C@H]2[C@@H]3CC[C@@H]4C[C@H](O)CC[C@]4(C)[C@H]3C[C@H](O)[C@]12C [Deoxycholic acid] | – |
| 3.3 ± 0.6 | C[C@]12CC[C@@H]3c4ccc(O)cc4CC[C@H]3[C@@H]1CC[C@@H]2O [Estradiol] | – |
| 105 ± 26.7 | CC(C)OC(=O)C(C)(C)Oc1ccc(C(=O)c2ccc(Cl)cc2)cc1 [Fenofibrate] | – |
| 22.2 ± 3.9 | C[C@H](CCC(=O)NCC(=O)O)[C@H]1CC[C@H]2[C@@H]3[C@H](O)C[C@@H]4C[C@H](O)CC[C@]4(C)[C@H]3C[C@H](O)[C@]12C [Glycocholic acid] | – |
| 1.2 ± 0.2 | C[C@H](CCC(=O)O)[C@H]1CC[C@H]2[C@@H]3CC[C@@H]4C[C@H](O)CC[C@]4(C)[C@H]3CC[C@]12C [Lithocholic acid] | – |
| 12.7 ± 1.9 | CC[C@H](C)C(=O)O[C@H]1C[C@@H](C)C=C2C=C[C@H](C)[C@H](CC[C@@H]3C[C@@H](O)CC(=O)O3)[C@H]21 [Mevinolin] | – |
| 2.2 ± 0.3 | CC#C[C@]1(O)CC[C@H]2[C@@H]3CCC4=CC(=O)CCC4=C3[C@@H](c3ccc(N(C)C)cc3)C[C@@]21C [Mifepristone] | – |
| 21.8 ± 3.6 | CC[C@H](C)C(=O)O[C@H]1C[C@H](O)C=C2C=C[C@H](C)[C@H](CC[C@@H](O)C[C@@H](O)CC(=O)O)[C@H]21 [Pravastatin] | – |
| 1.6 ± 0.11 | Cc1cccc(Nc2cc(Cl)nc(SCC(=O)O)n2)c1C [WY-14643] | – |
